Source: patent US8765684B2, “Solid materials of {[(2S,5R,8S,11S)-5-benzyl-11-(3-guanidino-propyl)-8-isopropyl-7-methyl-3,6,9,12,15-pentaoxo-1,4,7,10,13-pentaaza-cyclopentadec-2-yl]-acetic acid} and methods for obtaining them” (Merck Patent GmbH, priority 2009, dated 2014)

Type: physicochemical
Conditions: 25° C., listed as S2
Source text: Preferably, the anhydrates or ansolvates according to the invention and especially the crystalline form A1 can be characterised, alternatively or additionally, by dynamic vapour sorption experiments. The results can be obtained by standard techniques as described in Rolf Hilfiker, ‘Polymorphism in the Pharmaceutical Industry’, Wiley-VCH. Weinheim 2006 (Chapter 9: Water Vapour Sorption, and references therein). […] Eur. criteria.
Preferably, the tetrasolvates according to the invention, more preferably the tetrahydrates according to the invention and especially the crystalline form S3 can be characterised, alternatively or additionally, by dynamic vapour sorption experiments. The results can be obtained by standard techniques as described in Rolf Hilfiker, ‘Polymorphism in the Pharmaceutical Industry’, Wiley-VCH. Weinheim 2006 (Chapter 9: Water Vapour Sorption, and references therein).
Dynamic Vapor Sorption measurements are preferably obtained on a SMS DVS Intrinsic system. The results are preferably obtained by standard techniques as described by Rolf Hilfiker “Polymorphism in the Pharmaceutical Industry” Wiley-VCH Weinheim 2006 (Chapter 9: Water Vapour Sorption, and references therein.) Approx. 2-10 mg of samples are preferably weighed into an Aluminium 100 μL pan and placed in the sample incubator of the DVS instrument with microbalance. A nitrogen overall flow rate of 200 mL/min (combined dry and humid stream) is preferably used for humidification. Water vapor sorption isotherms are preferably acquired at 25° C. in the range 0% relative humidity to 98% relative humidity mostly with 10% relative humidity steps. For all relative humidity steps, an equilibrium condition of dm/dt≦0.0005 wt %/min are preferably used, with a minimum relative humidity step time of 10 minutes and a maximum relative humidity step time of 360 minutes which is preferably used as a timeout if the dm/dt criterai mentioned above is not been reached.
A SMS DVS I system is used for the dynamic vapour experiments regarding crystalline form S3. The results have been obtained by standard techniques as described in Rolf Hilfiker, ‘Polymorphism in the Pharmaceutical Industry’, Wiley-VCH. Weinheim 2006 (Chapter 9: Water Vapour Sorption, and references therein). […] During the water adsorption cycle there is shown an assembly of water molecules (ca. 10 wt%) in the lattice at elevated rh. In the second desorption cycle there is a loss of this amount of water.
(§1) A SMS DVS Intrinsic is used for the dynamic vapour experiments. The results are obtained by standard techniques as described in Rolf Hilfiker, ‘Polymorphism in the Pharmaceutical Industry’, Wiley-VCH. Weinheim 2006 (Chapter 9: Water Vapour Sorption, and references therein). […] Upon water vapour adsorption, an assembly of water molecules in the lattice is observed, with a maximum weight gain of approx. 8 wt % at elevated rh. In the second desorption cycle a total mass loss of approx. 9.9 wt % is observed. For a Cilengitide Dihydrate Di-Methanolate, the calculated Methanol content equals 9.3 wt %.
as §1, with “6.4” for “8”, “9.2” for “9.9”, “Di-Ethanolate,” for “Di-Methanolate,”, “Ethanol” for “Methanol”, “12.5” for “9.3”

**Q.** With “cyclo-(Arg-Gly-Asp-DPhe-NMe-Val) [crystalline form S2]” as the substance, how does the “Maximum weight gain upon water vapour adsorption” value (elevated rh) read?
**A.** approx. 6.4 wt %

**Q.** And the “Mass loss in the first desorption cycle” value (water vapour sorption)?
**A.** approx. 6.5 wt %

**Q.** What about the “Total mass loss in the second desorption cycle” value (water vapour sorption) of the same substance?
**A.** approx. 9.2 wt %
